By IC50 is commonly meant the concentration that gives 50% inhibition.

What all share (assay): HeLa cell assay (HIV-LTR β-galactosidase reporter)
The test system of assay [1] is WTRVA. It counts as cell-based, HIV-1. The conditions noted are these: Human immunodeficiency virus 1, Virus Type WTRVA, read-out: IC50 (nM) Range.
Assay [2] deals with isogenic HIV-1 RT mutant virus E138K. It counts as cell-based. The conditions noted are these: Human immunodeficiency virus 1, HeLa, read-out: IC50 (nM) Range. The method, boiled down: (§1)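 HeLa-CD4-LTR-β-gal cells, seeded overnight, were infected with isogenic recombinant HXB2 RT-mutant virus (50 to 70 total RLUs per well, DEAE-dextran) for 1.5 to 2 hours. Five-fold compound titrations (2 μM to 1 pM final, 0.1% DMSO) followed, with 72 h at 37° C. IC50 is chemiluminescent β-gal signal inhibition versus untreated controls.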

Assay [3] deals with isogenic HIV-1 RT mutant virus G190A. In kind it is cell-based. The conditions noted are these: Human immunodeficiency virus 1, HeLa, read-out: IC50 (nM) Range. The method, boiled down: as §1
Assay [4] deals with isogenic HIV-1 RT mutant virus G190E. In kind it is cell-based. The conditions noted are these: Human immunodeficiency virus 1, HeLa, read-out: IC50 (nM) Range. The method, boiled down: as §1
The test system of assay [5] is isogenic HIV-1 RT mutant virus K101E. It counts as cell-based. The conditions noted are these: Human immunodeficiency virus 1, HeLa, read-out: IC50 (nM) Range. The method, boiled down:
as §1

For assay [6], the system named is isogenic HIV-1 RT mutant virus K103N/G190A. It counts as cell-based. The conditions noted are these: Human immunodeficiency virus 1, HeLa, read-out: IC50 (nM) Range. The method, boiled down: as §1
For assay [7], the system named is isogenic HIV-1 RT mutant virus K103N/L1001. It counts as cell-based. The conditions noted are these: Human immunodeficiency virus 1, HeLa, read-out: IC50 (nM) Range. The method, boiled down: as §1
Assay [8] has as its system isogenic HIV-1 RT mutant virus K103N/P225H. In kind it is cell-based. The conditions noted are these: Human immunodeficiency virus 1, HeLa, read-out: IC50 (nM) Range. In short, it runs like this:
as §1

The subject of assay [9] is isogenic HIV-1 RT mutant virus K103N/V108I. It counts as cell-based. The conditions noted are these: Human immunodeficiency virus 1, HeLa, read-out: IC50 (nM) Range. In short, it runs like this:
as §1

Assay [10] deals with isogenic HIV-1 RT mutant virus K103N/Y181C. It counts as cell-based. The conditions noted are these: Human immunodeficiency virus 1, HeLa, read-out: IC50 (nM) Range. In short, it runs like this: as §1
For assay [11], the system named is isogenic HIV-1 RT mutant virus K103N. In kind it is cell-based. The conditions noted are these: Human immunodeficiency virus 1, HeLa, read-out: IC50 (nM) Range. In short, it runs like this:
as §1

Assay [12] has as its system isogenic HIV-1 RT mutant virus L100I. In kind it is cell-based. The conditions noted are these: Human immunodeficiency virus 1, HeLa, read-out: IC50 (nM) Range. In short, it runs like this:
as §1

For assay [13], the system named is isogenic HIV-1 RT mutant virus P225H. In kind it is cell-based. The conditions noted are these: Human immunodeficiency virus 1, HeLa, read-out: IC50 (nM) Range. In short, it runs like this:
as §1

In assay [14] the test system is isogenic HIV-1 RT mutant virus P236L. In kind it is cell-based. The conditions noted are these: Human immunodeficiency virus 1, HeLa, read-out: IC50 (nM) Range. The method, boiled down: as §1
Assay [15] deals with isogenic HIV-1 RT mutant virus V106A/Y181C. It counts as cell-based. The conditions noted are these: Human immunodeficiency virus 1, HeLa, read-out: IC50 (nM) Range. The method, boiled down:
as §1

Assay [16] deals with isogenic HIV-1 RT mutant virus V106A. It counts as cell-based. The conditions noted are these: Human immunodeficiency virus 1, HeLa, read-out: IC50 (nM) Range. In short, it runs like this: as §1
The test system of assay [17] is isogenic HIV-1 RT mutant virus V106I/Y181C. In kind it is cell-based. The conditions noted are these: Human immunodeficiency virus 1, HeLa, read-out: IC50 (nM) Range. In short, it runs like this: as §1
The test system of assay [18] is isogenic HIV-1 RT mutant virus V106I. In kind it is cell-based. The conditions noted are these: Human immunodeficiency virus 1, HeLa, read-out: IC50 (nM) Range. In short, it runs like this:
as §1

The test system of assay [19] is isogenic HIV-1 RT mutant virus V108I/Y181C. In kind it is cell-based. The conditions noted are these: Human immunodeficiency virus 1, HeLa, read-out: IC50 (nM) Range. In short, it runs like this: as §1
Assay [20] has as its system isogenic HIV-1 RT mutant virus V108I. It counts as cell-based. The conditions noted are these: Human immunodeficiency virus 1, HeLa, read-out: IC50 (nM) Range. The method, boiled down:
as §1

The test system of assay [21] is isogenic HIV-1 RT mutant virus Y181C. In kind it is cell-based. The conditions noted are these: Human immunodeficiency virus 1, HeLa, read-out: IC50 (nM) Range. The method, boiled down: as §1
Assay [22] concerns isogenic HIV-1 RT mutant virus Y188C. In kind it is cell-based. The conditions noted are these: Human immunodeficiency virus 1, HeLa, read-out: IC50 (nM) Range. The method, boiled down: as §1

With `Cc1cc2nc[nH]c2cc1NC(=O)COc1ccc(Cl)cc1C(=O)c1cc(F)cc(C(F)(F)F)c1` [Compound 239], the IC50 in assay [1] is under 10 nM; in assay [2], under 10 nM; in [3], under 10 nM; in assay [4], under 10 nM; in assay [5], under 10 nM; in [6], 11 to 100 nM. Moreover, the IC50 in assay [7] is under 10 nM; in [8] it was under 10 nM; in [9], under 10 nM; in assay [10] it was 11 to 100 nM; in [11], under 10 nM; in [12], under 10 nM. Further, the IC50 was under 10 nM in assay [13]; under 10 nM in assay [14]; 101 to 1000 nM in assay [15]; 11 to 100 nM in [16]; under 10 nM in assay [17]; under 10 nM in assay [18]. The IC50 in assay [19], in assay [20], in assay [21] and in [22] was under 10 nM throughout.

Source of the values: patent US7273863B1, “Benzophenones as inhibitors of reverse transcriptase” (SmithKline Beecham Corporation, priority 1999, dated 2007).
